Data from the NIST ThermoML archive (doi:10.1016/j.jct.2012.03.034).
± gives the expanded uncertainty stated by the source.

Test: xn = mol fraction of the nth substance listed
Conditions: 101 kPa, Liquid; for speed of sound: Linear variable-path acoustic interferometer; for mass density: Vibrating tube method; for viscosity: dual vibrating plate viscometer, AandD Co. Ltd Model SV-10

CC[NH+](CC)CC.O=S(=O)([O-])O [triethylammonium hydrogen sulfate] + CN1CCCC1=O
Conditions	mass density, 298.15 K [kg/m3]	mass density, 303.15 K [kg/m3]	speed of sound, 298.15 K [m/s]	speed of sound, 303.15 K [m/s]	viscosity, 298.15 K [mPa·s]	viscosity, 303.15 K [mPa·s]
x1 = 0.0115	1032.8 ± 0.61	1029.6 ± 0.54	1575 ± 2	1559 ± 2	3.39 ± 0.11	1.09 ± 0.06
x1 = 0.0234	1038.22 ± 0.45	1033.96 ± 0.45	1585 ± 2	1569 ± 2	4.63 ± 0.1	1.26 ± 0.03
x1 = 0.0632	1050.09 ± 0.44	1046.49 ± 0.44	1610 ± 2	1594 ± 2	4.46 ± 0.09	1.97 ± 0.04
x1 = 0.0927	1059.1 ± 0.43	1054.51 ± 0.42	1627 ± 2	1613 ± 2	4.81 ± 0.1	1.09 ± 0.03
x1 = 0.1387	1070.98 ± 0.4	1066.39 ± 0.4	1658 ± 2	1646 ± 2	4.99 ± 0.11	2.15 ± 0.05
x1 = 0.2259	1088.61 ± 0.39	1084.19 ± 0.39	1710 ± 2	1699 ± 2	8.89 ± 0.22	4.28 ± 0.11
x1 = 0.2631	1094.64 ± 0.38	1090.49 ± 0.38	1734 ± 2	1724 ± 2	19.46 ± 0.52	8.71 ± 0.27
x1 = 0.3261	1103.78 ± 0.37	1099.54 ± 0.37	1770 ± 2	1761 ± 2	40.98 ± 0.96	24.33 ± 0.59
x1 = 0.4478	1116.87 ± 0.37	1112.6 ± 0.37	1823 ± 2	1818 ± 2	96.22 ± 2.1	66.28 ± 1.4
x1 = 0.5947	1127.01 ± 0.37	1123.51 ± 0.37	1871 ± 2	1867 ± 2	163.18 ± 3.4	119.65 ± 2.5
x1 = 0.7717	1135 ± 0.37	1132.09 ± 0.37	1893 ± 2	1891 ± 2	229.32 ± 4.8	168.61 ± 3.5
x1 = 0.9017	1139.74 ± 0.37	1137.34 ± 0.37	1885 ± 2	1886 ± 2	245.82 ± 5.1	–
x1 = 0.9497	1141.23 ± 0.37	1139.47 ± 0.37	1879 ± 2	1881 ± 2	242.86 ± 5	–
x1 = 1	1142.89 ± 0.37	1141.83 ± 0.37	1874 ± 2	1871 ± 2	235 ± 5	–
